According to patent US12668599B2, “Heterobifunctional compounds and methods of treating disease” (Halda Therapeutics OpCo, Inc., priority 2023, dated 2026):

Tests used:
[1] = tested on: T-Rex 293 cell line SC3 cells having increased expression of androgen receptor protein due to exposure to doxycycline; experiment: Cellular growth inhibition, T-Rex 293 SC3 cells with doxycycline-induced androgen receptor (CellTiter-Glo 2.0, 72 hours); assay type: cell-based; details: for GI50: T-Rex 293 SC3 cells with 10 ng/ml doxycycline (increased androgen receptor expression), 72 hours, CellTiter-Glo 2.0; for Ratio of GI50's: GI50 of the top compound in the pair divided by GI50 of the lower compound, T-Rex 293 SC3 cells with doxycycline-induced androgen receptor
[2] = tested on: T-Rex 293 cell line SC3 cells lacking increased expression of androgen receptor protein; experiment: Cellular growth inhibition, T-Rex 293 SC3 cells without doxycycline (CellTiter-Glo 2.0, 72 hours); assay type: cell-based; details: T-Rex 293 SC3 cells not exposed to doxycycline (no increased androgen receptor expression)
[3] = tested on: VCaP cells; experiment: Cellular growth inhibition assay for VCaP cells (CellTiter-Glo 2.0, 72 hours); assay type: cell-based, human; details: for GI50: CellTiter-Glo 2.0; for Ratio of GI50's: GI50 of the top compound in the pair divided by GI50 of the lower compound

SMILES | GI50 [1] [µM] | GI50 ([2]; 72 h) [µM] | GI50 ([3]; Homo sapiens, VCaP, 72 h) [µM] | GI50 [2] [µM] | GI50 ([3]; 72 hours) [µM] | Ratio of GI50's [1] | Ratio of GI50's [3]
COc1cc(O[C@H]2CC[C@H](NC(=O)c3ccc(N4CCC5(CCC(Oc6ccc(C7=N[C@@H](C)c8nnc(C)n8-c8sc(C)c(C)c87)cc6)C5)C4)nn3)CC2)ccc1C#N (stereo partly shown) [Compound I-50] | < 0.5 | < 0.5 | < 0.5 | – | – | – | –
COc1cc(O[C@H]2CC[C@H](NC(=O)c3ccc(N4CCC5(CCN(c6ccc(C7=N[C@@H](C)c8nnc(C)n8-c8sc(C)c(C)c87)cc6)CC5)C4)nn3)CC2)ccc1C#N [Compound I-71] | < 0.5 | – | – | < 0.5 | < 0.5 | – | –
COc1cc(O[C@H]2CC[C@H](NC(=O)c3ccc(N4CCC5(CCC(c6ccc(C7=N[C@@H](C)c8nnc(C)n8-c8sc(C)c(C)c87)cc6)C5)CC4)nn3)CC2)ccc1C#N (stereo partly shown) [Compound I-22] | < 0.5 | < 0.5 | 0.5 to 1.5 | – | – | – | –
COc1cc(O[C@H]2CC[C@H](NC(=O)c3ccc(N4CCC5(CCC(Oc6ccc(C7=N[C@@H](C)c8nnc(C)n8-c8sc(C)c(C)c87)cc6)C5)C4)nn3)CC2)ccc1C#N (stereo partly shown) [Compound I-51] | < 0.5 | – | – | < 0.5 | < 0.5 | – | –
COc1cc(O[C@H]2CC[C@H](NC(=O)c3ccc(N4CCC5(CCC(c6ccc(C7=N[C@@H](C)c8nnc(C)n8-c8sc(C)c(C)c87)cc6)CC5)C4)cn3)CC2)ccc1C#N (stereo partly shown) [Compound I-53] | < 0.5 | < 0.5 | < 0.5 | – | – | – | –
COc1cc(O[C@H]2CC[C@H](NC(=O)c3ccc(N4CC(F)(F)C5(CCN(c6ccc(C7=N[C@@H](C)c8nnc(C)n8-c8sc(C)c(C)c87)cc6)C5)C4)nn3)CC2)ccc1C#N (stereo partly shown) [Compound I-117] | < 0.5 | < 0.5 | < 0.5 | – | – | – | –
COc1cc(O[C@H]2CC[C@H](NC(=O)c3ccc(-n4cc5c(c4)CN(c4ccc(C6=N[C@@H](C)c7nnc(C)n7-c7sc(C)c(C)c76)cc4)C5)nn3)CC2)ccc1C#N [Compound I-108] | < 0.5 | < 0.5 | < 0.5 | – | – | – | –
COc1cc(O[C@H]2CC[C@H](NC(=O)c3ccc(N4C[C@]5(C)CN(c6ccc(C7=N[C@@H](C)c8nnc(C)n8-c8sc(C)c(C)c87)cc6)C[C@]5(C)C4)nn3)CC2)ccc1C#N [Compound I-48] | < 0.5 | < 0.5 | < 0.5 | – | – | – | –
COc1cc(O[C@H]2C(C)(C)[C@H](NC(=O)c3cnc(N4CCC5(CC4)CC(Cc4ccc(C6=N[C@@H](Cc7ncco7)c7nnc(C)n7-c7sc(C)c(C)c76)c(F)c4)C5)nc3)C2(C)C)ccc1C#N [II-13] | < 0.5 | < 0.5 | < 0.5 | – | – | – | –
COc1cc(O[C@H]2CC[C@H](NC(=O)c3ccc(N4CCC5(CC4)CC(Cc4ccc(C6=N[C@@H](Cc7ncco7)c7nnc(C)n7-c7sc(C)c(C)c76)cc4)C5)nn3)CC2)ccc1C#N [Compound I-25, N-[4-(4-cyano-3-methoxy-phenoxy)cyclohexyl]-6-[2-[[4-[(9S)-4,5,13-trimethyl-9-(oxazol-2-ylmethyl)-3-thia-1,8,11,12-tetrazatricyclo[8.3.0.0^2,6]trideca-2 (6),4,7,10,12-pentaen-7-yl]phenyl]methyl]-7-azaspiro[3.5]nonan-7-yl]pyridazine-3-carboxamide] | < 0.5 | < 0.5 | < 0.5 | – | – | 1 | 1
COc1cc(O[C@H]2CC[C@H](NC(=O)c3ccc(N4CCC5(CCC(c6ccc(C7=N[C@@H](C)c8nnc(C)n8-c8sc(C)c(C)c87)c(OC)c6)CC5)C4)nn3)CC2)ccc1C#N (stereo partly shown) [Compound I-68] | < 0.5 | < 0.5 | < 0.5 | – | – | – | –
COc1cc(O[C@H]2CC[C@H](NC(=O)c3ccc(N4CCC5(CCN(c6ccc(C7=N[C@@H](C)c8nnc(C)n8-c8sc(C)c(C)c87)c(F)c6)C5)C4)nn3)CC2)ccc1C#N (stereo partly shown) [Compound I-92] | < 0.5 | < 0.5 | < 0.5 | – | – | – | –
CC[C@@H]1N=C(c2ccc(C3CCC4(CC3)CCN(c3ccc(C(=O)NC5CCC(Oc6ccc(C#N)c(OC(F)(F)F)c6)CC5)nn3)C4)cc2)c2c(sc(C)c2C)-n2c(C)nnc21 (stereo partly drawn) [Compound I-13, N-((1r,4r)-4-(4-cyano-3-(trifluoromethoxy)phenoxy)cyclohexyl)-6-(8-(4-((S)-6-ethyl-2,3,9-trimethyl-6H-thieno[3,2-f][1,2,4]triazolo[4,3-a][1,4]diazepin-4-yl)phenyl)-2-azaspiro[4.5]decan-2-yl) pyridazine-3-carboxamide] | < 0.5 | – | – | < 0.5 | < 0.5 | – | –
COc1cc(O[C@H]2CC[C@H](NC(=O)c3ccc(N4CCC5(CCC(c6ccc(C7=N[C@@H](C)c8nnc(C)n8-c8sc(C)c(C)c87)cc6)CC5)C4)nn3)CC2)ccc1C#N (stereo partly drawn) [Compound I-19, N-[(1r,4r)-4-(4-cyano-3-methoxy-phenoxy)cyclohexyl]-6-[8-[4-[(9S)-4,5,9,13-tetramethyl-3-thia-1,8,11,12-tetrazatricyclo[8.3.0.0^2,6]trideca-2 (6),4,7,10,12-pentaen-7-yl]phenyl]-2-azaspiro[4.5]decan-2-yl]pyridazine-3-carboxamide] | < 0.5 | < 0.5 | < 0.5 | – | – | – | –
COCC[C@@H]1N=C(c2ccc(C3CCC4(CC3)CCN(c3ccc(C(=O)NC5CCC(Oc6ccc(C#N)c(OC(F)(F)F)c6)CC5)nn3)C4)cc2)c2c(sc(C)c2C)-n2c(C)nnc21 (stereo partly drawn) [Compound I-4, N-[4-[4-cyano-3-(trifluoromethoxy)phenoxy]cyclohexyl]-6-[8-[4-[(9S)-9-(2-methoxyethyl)-4,5,13-trimethyl-3-thia-1,8,11,12-tetrazatricyclo[8.3.0.0^2,6]trideca-2 (6),4,7,10,12-pentaen-7-yl]phenyl]-2-azaspiro[4.5]decan-2-yl]pyridazine-3-carboxamide] | < 0.5 | 1.5 to 3 | < 0.5 | – | – | – | –
COc1cc(O[C@H]2CC[C@H](NC(=O)c3ccc(N4CCC5(CCC(c6ccc(C7=N[C@@H](Cc8ncco8)c8nnc(C)n8-c8sc(C)c(C)c87)cc6)CC5)C4)nn3)CC2)ccc1C#N (stereo partly shown) [Compound I-101] | < 0.5 | – | – | < 0.5 | < 0.5 | 1 | 1
COc1cc(O[C@H]2CC[C@H](NC(=O)c3ccc(N4CC5(CCC5)C5(CCN(c6ccc(C7=N[C@@H](C)c8nnc(C)n8-c8sc(C)c(C)c87)cc6)CC5)C4)nn3)CC2)ccc1C#N [Compound I-114] | < 0.5 | < 0.5 | < 0.5 | – | – | – | –
COc1cc(O[C@H]2CC[C@H](NC(=O)c3ccc(N4CCC5(CCN(c6ccc(C7=NC(Cc8ncco8)c8nnc(C)n8-c8sc(C)c(C)c87)cc6C(F)(F)F)CC5)C4)nn3)CC2)ccc1C#N (stereo partly shown) [Compound I-129] | < 0.5 | – | – | < 0.5 | < 0.5 | – | –
COc1cc(O[C@H]2CC[C@H](NC(=O)c3ccc(N4CCC5(CCN(c6ccc(C7=N[C@@H](C)c8nnc(C)n8-c8sc(C)c(C)c87)cc6)CC5)C4)nn3)CC2)ccc1C#N [Compound I-70] | < 0.5 | < 0.5 | < 0.5 | – | – | – | –
COc1cc(O[C@H]2CC[C@H](NC(=O)c3ccc(N4CCC5(CCC(c6ccc(C7=N[C@@H](C)c8nnc(C)n8-c8sc(C)c(C)c87)cc6C)CC5)C4)nn3)CC2)ccc1C#N (stereo partly shown) [Compound I-60] | < 0.5 | < 0.5 | < 0.5 | – | – | – | –
COc1cc(O[C@H]2CC[C@H](NC(=O)c3ccc(N4CCC5(CCC(c6ccc(C7=N[C@@H](C)c8nnc(C)n8-c8sc(C)c(C)c87)c(F)c6)CC5)C4)nn3)CC2)ccc1C#N (stereo partly shown) [Compound I-59] | < 0.5 | < 0.5 | < 0.5 | – | – | – | –
